Test results taken from BigSolDB 2.1.

Conditions: in water

CCCC(N)=O
solubility (mole fraction) (278.15 K): 0.0163
solubility (mole fraction) (283.15 K): 0.021
solubility (mole fraction) (288.15 K): 0.026
solubility (mole fraction) (293.15 K): 0.0331
solubility (mole fraction) (298.15 K): 0.0442
solubility (mole fraction) (303.15 K): 0.0575
solubility (mole fraction) (308.15 K): 0.0724
solubility (mole fraction) (313.15 K): 0.0895
solubility (mole fraction) (318.15 K): 0.109
solubility (mole fraction) (323.15 K): 0.131
solubility (mole fraction) (328.15 K): 0.152
solubility (mole fraction) (333.15 K): 0.175

CCC(N)=O
solubility (mole fraction) (278.15 K): 0.134
solubility (mole fraction) (283.15 K): 0.163
solubility (mole fraction) (288.15 K): 0.195
solubility (mole fraction) (293.15 K): 0.232
solubility (mole fraction) (298.15 K): 0.276
solubility (mole fraction) (303.15 K): 0.315
solubility (mole fraction) (308.15 K): 0.371
solubility (mole fraction) (313.15 K): 0.4
solubility (mole fraction) (318.15 K): 0.45
solubility (mole fraction) (323.15 K): 0.486
solubility (mole fraction) (328.15 K): 0.527
solubility (mole fraction) (333.15 K): 0.568
